{"source": "paper PMC3369139", "about": "“Preclinical evaluation of two ^68Ga-siderophores as potential radiopharmaceuticals for Aspergillus fumigatus infection imaging” (European Journal of Nuclear Medicine and Molecular Imaging, 2012)", "key": {"[1]": {"test": "Metabolic stability in normal Balb/c mice (RP-HPLC of urine, blood, liver and kidney homogenates)", "type": "in vivo", "details": "30 min p.i., % intact on RP-HPLC; for Stability in urine (%): γ-counter; for Stability in blood (%): acetonitrile precipitation", "description": "Urine, blood, liver and kidneys of normal Balb/c mice injected with ^68Ga-siderophores and treated as described previously were collected 30 min after injection. The urine sample was directly injected onto the RP-HPLC column. Blood samples were precipitated with acetonitrile and centrifuged for 2 min, and the supernatant was injected onto the RP-HPLC column. Liver and kidneys were washed in the ice-cold TRIS buffer and liquidized using a mixer in a falcon tube containing 1 ml of TRIS buffer. The liver and kidney homogenates obtained were mixed with acetonitrile and centrifuged for 2 min, and the supernatant was injected onto the RP-HPLC column. In all cases 1 min fractions of the column eluate were collected and measured in a γ-counter. Samples were not collected at 90 min after injection because the measured activity was already low in the samples obtained 30 min after injection. All metabolic studies were performed using a previously described HPLC method."}, "[2]": {"tested_on": "A. fumigatus wild-type ATCC46645", "test": "In vitro uptake of ^68Ga-siderophores by A. fumigatus cultures", "type": "cell-based, Aspergillus fumigatus", "details": "room temperature; for Uptake by A. fumigatus in iron-deficient cultures: 5 ng ^68Ga-siderophore, 10-90 min, 96-well plates, filtration, γ-counter; for Blocking of uptake with excess of ferri-siderophore and/or sodium azide: iron-deficient cultures, 45 min incubation", "description": "The Aspergillus strain used for in vitro studies was A. fumigatus wild-type ATCC46645 (American Type Culture Collection) cultured at 37 °C in Aspergillus minimal medium, containing 1 % glucose as the carbon source, 20 mM glutamine as the nitrogen source, salts and trace elements, as described previously. Iron-sufficient media contained […] FeSO4. For preparation of iron-deficient media, iron addition was omitted. Iron-deficient conditions were verified by detection of extracellular siderophore production, which is suppressed by iron.\nUptake by A. fumigatus in iron-deficient and iron-sufficient cultures was studied. For the monitoring of uptake over time, ^68Ga-siderophores (5 ng) were incubated in microbial media for 10, 20, 30, 45, 60 and 90 min at room temperature in 96-well plates (Millipore, Billerica, MA). For the monitoring of uptake blocking, excess of ferri-siderophore (Fe-TAFC or Fe-FOXE) and/or sodium azide was used. ^68Ga-siderophores were incubated in iron-deficient and iron-sufficient media for 45 min at room temperature in 96-well plates. The incubation was interrupted in both cases by filtration of the medium and rapid rinsing with ice-cold TRIS buffer. The filters were collected and counted in a γ-counter."}}, "data": [{"smiles": "O=C1CCC(=O)N([O-])CCCCCNC(=O)CCC(=O)N([O-])CCCCCNC(=O)CCC(=O)N([O-])CCCCCN1.[68Ga+3]", "note": "[^68Ga-FOXE, ferrioxamine E]", "values": [{"measurement": "Stability in kidney homogenate (%)", "setting": "[1]", "value": 97.6, "unit": "%"}, {"measurement": "Stability in liver homogenate (%)", "setting": "[1]", "value": 71.3, "unit": "%"}, {"measurement": "Stability in urine (%)", "setting": "[1]", "value": 95.9, "unit": "%"}, {"measurement": "Stability in blood (%)", "setting": "[1]", "value": 97.7, "unit": "%"}, {"measurement": "Uptake by A. fumigatus in iron-deficient cultures", "setting": "[2]", "value": "rapid uptake"}, {"measurement": "Blocking of uptake with excess of ferri-siderophore and/or sodium azide", "setting": "[2]", "value": "could be blocked"}]}, {"smiles": "CC(=O)NC1CCCN([O-])C(=O)C=C(C)CCOC(=O)C(NC(C)=O)CCCN([O-])C(=O)C=C(C)CCOC(=O)C(NC(C)=O)CCCN([O-])C(=O)C=C(C)CCOC1=O.[68Ga+3]", "note": "(stereo not drawn) [^68Ga-TAFC, triacetylfusarinine C]", "values": [{"measurement": "Stability in kidney homogenate (%)", "setting": "[1]", "value": 96.7, "unit": "%"}, {"measurement": "Stability in liver homogenate (%)", "setting": "[1]", "value": 98.1, "unit": "%"}, {"measurement": "Stability in urine (%)", "setting": "[1]", "value": 97.6, "unit": "%"}, {"measurement": "Stability in blood (%)", "setting": "[1]", "value": 98.7, "unit": "%"}, {"measurement": "Uptake by A. fumigatus in iron-deficient cultures", "setting": "[2]", "value": "rapid uptake"}, {"measurement": "Blocking of uptake with excess of ferri-siderophore and/or sodium azide", "setting": "[2]", "value": "could be blocked"}]}]}
